Experimental data published in the supplement of paper PMC8967900.

Legend:
Test in all cases: selective drug sensitivity score (sDSS, relative to normal bone marrow) (sDSS (score)); higher = more potent and effective on the cell line relative to normal bone marrow cells
Conditions in all cases: 72 h
380 = tested on: 380
697 = tested on: 697
ALL-SIL = tested on: ALL-SIL
CCRF-CEM = tested on: CCRF-CEM
COG-LL-317 = tested on: COG-LL-317
COG-LL-394h = tested on: COG-LL-394h
COG-LL-402h = tested on: COG-LL-402h
HPB-ALL = tested on: HPB-ALL
JURKAT = tested on: JURKAT
KASUMI-10 = tested on: KASUMI-10
KASUMI-2 = tested on: KASUMI-2
KASUMI-9 = tested on: KASUMI-9
KOPN-8 = tested on: KOPN-8
MHH-CALL-3 = tested on: MHH-CALL-3
MHH-CALL-4 = tested on: MHH-CALL-4
MOLT-4 = tested on: MOLT-4
NALM-16 = tested on: NALM-16
NALM-6 = tested on: NALM-6
PF-382 = tested on: PF-382
TMD5 = tested on: TMD5
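Further: ALL cell lines in 384-well plates, five doses spanning 10,000-fold, each plate scaled between vehicle and 100 µmol/L benzalkonium chloride controls, sDSS an adapted area-under-curve metric.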

Structure (SMILES)	selective drug sensitivity score 380	selective drug sensitivity score 697	selective drug sensitivity score (ALL-SIL)	selective drug sensitivity score (CCRF-CEM)	selective drug sensitivity score (COG-LL-317)	selective drug sensitivity score (COG-LL-394h)	selective drug sensitivity score (COG-LL-402h)	selective drug sensitivity score (HPB-ALL)	selective drug sensitivity score (JURKAT)	selective drug sensitivity score (KASUMI-10)	selective drug sensitivity score (KASUMI-2)	selective drug sensitivity score (KASUMI-9)	selective drug sensitivity score (KOPN-8)	selective drug sensitivity score (MHH-CALL-3)	selective drug sensitivity score (MHH-CALL-4)	selective drug sensitivity score (MOLT-4)	selective drug sensitivity score (NALM-16)	selective drug sensitivity score (NALM-6)	selective drug sensitivity score (PF-382)	selective drug sensitivity score (TMD5)
Oc1ccc2c(c1)CC[C@H](c1ccccc1)[C@@H]2c1ccc(OCCN2CCCC2)cc1 [Lasofoxifene] (top concentration 1000 nM)	-1.28	-1.28	-1.28	-1.08	-1.28	-1.28	-0.18	7.52	-1.28	-1.28	-1.28	-1.28	-1.28	-1.28	-1.28	-1.28	-1.28	-1.28	-0.98	-1.28
CCn1cc(-c2ccnc3[nH]c(-c4cccc(CN(C)C)c4)cc23)c(-c2ccc(NC(=O)N(C)C)cc2)n1 (top concentration 1000 nM)	19	20.5	21.3	18	18.7	0.36	17.8	-0.44	-1.84	9.86	17.7	20.3	11.2	2.06	7.46	13.1	-1.84	13.8	9.26	13.5
CC(C)n1cnc2c(NCCc3ccc(O)cc3)nc(-c3csc4ccccc34)nc21 [StemRegenin_1] (top concentration 10000 nM)	-1.8	-0.5	3.8	1.4	-0.3	-1.8	-1.8	6.4	1	-1.8	-1.8	-0.5	0.1	-1.8	-1.8	2.5	-1.8	1.1	0.9	-1.8
CC[C@]12C=CCN3CC[C@@]4(c5cc([C@@]6(C(=O)OC)C[C@@H]7C[C@@H](C(C)(F)F)CN(Cc8c6[nH]c6ccccc86)C7)c(OC)cc5N(C)[C@H]4[C@@](O)(C(=O)OC)[C@@H]1OC(C)=O)[C@@H]32 [Vinflunine] (top concentration 1000 nM)	5.98	4.68	10.3	3.98	3.88	2.38	2.78	6.18	4.48	4.08	5.68	6.78	7.08	-0.12	0.58	3.48	4.08	5.18	2.68	0.28
CC(C)Cn1cnc2c(N)nc3ccccc3c21 [Imiquimod] (top concentration 2500 nM)	9	0.4	0	0	0	0.8	0	2.6	0	0	1.5	0.9	2.7	0	0.9	0	0	0.4	0	4.4
CC(C)(C)C[C@@H]1N[C@@H](C(=O)N[C@H]2CC[C@H](O)CC2)[C@H](c2cccc(Cl)c2F)[C@]12C(=O)Nc1cc(Cl)ccc12 (top concentration 10000 nM)	14.3	11.2	-3.34	-3.94	19.9	6.46	13.4	-3.44	-4.74	12.5	11.7	16.4	12.9	16.9	8.96	12.9	-3.54	6.26	-3.94	9.16
COc1cc2/c(=N/c3ccc(Br)cc3F)nc[nH]c2cc1OCC1CCN(C)CC1 [Vandetanib] (top concentration 1000 nM)	-0.22	0.18	2.68	-0.22	-0.22	-0.22	0.18	-0.22	-0.22	-0.22	-0.22	-0.22	-0.22	0.78	-0.22	-0.22	-0.22	-0.22	0.48	5.38
CCOCc1nc2c(N)nc3ccccc3c2n1CC(C)(C)O [Resiquimod] (top concentration 10000 nM)	-4.62	-4.62	-4.92	-4.92	-4.02	-4.42	-4.32	-4.92	-4.52	-2.72	-4.92	-4.92	-4.92	-4.82	-4.92	-4.92	-4.92	-4.42	-4.72	-4.92
O=C(Nc1cccnc1)N1CCC(Cc2cccc(Oc3ccc(C(F)(F)F)cn3)c2)CC1 [PF-3845] (top concentration 10000 nM)	-1.34	4.06	-0.84	-0.44	0.26	3.96	-0.84	-0.14	6.36	-1.34	-0.24	-0.84	0.46	-1.34	0.96	2.36	0.36	2.86	1.96	-0.94
COc1cc(N2CCC(N3CCN(C)CC3)CC2)ccc1Nc1ncnc(Nc2ccccc2S(=O)(=O)C(C)C)n1 [ASP3026] (top concentration 10000 nM)	-2.74	-0.84	0.16	-0.14	-1.44	2.36	1.76	1.26	-1.54	2.86	-4.04	-0.84	-2.64	-4.04	-3.94	-0.14	-2.64	1.86	-0.04	-1.84
COC(=O)c1ccc([C@H]2c3[nH]c4ccccc4c3C[C@H](C(=O)OC)N2C(=O)CCl)cc1 [RSL3] (top concentration 10000 nM)	14.2	0	0	0.2	0.3	0	0	0.4	0	0.3	0	0	0	0.7	0	0	0	1.5	0.9	0
CC[C@H](C)C(=O)O[C@H]1C[C@H](O)C=C2C=C[C@H](C)[C@H](CC[C@@H](O)C[C@@H](O)CC(=O)O)[C@H]21 [Pravastatin] (top concentration 10000 nM)	3.04	-0.66	-0.66	-0.46	0.94	-0.66	-0.46	-0.66	-0.66	-0.66	-0.66	-0.66	-0.66	0.74	-0.66	-0.66	-0.66	-0.66	-0.66	-0.66
C=CCN(/C=C1/C(=O)O[C@H](COC)[C@@]2(C)C1=C(O)C(=O)C1=C2[C@H](OC(C)=O)C[C@]2(C)C(=O)CC[C@@H]12)CC=C [Sonolisib] (top concentration 10000 nM)	-0.56	0.24	2.64	-0.66	-0.06	-0.66	-0.76	-0.76	-0.76	-0.76	-0.76	0.14	-0.16	-0.76	-0.06	-0.76	-0.56	-0.56	-0.76	-0.76
CCC(C)(C)C(=O)O[C@H]1C[C@@H](C)C=C2C=C[C@H](C)[C@H](CC[C@@H]3C[C@@H](O)CC(=O)O3)[C@H]21 [Simvastatin] (top concentration 10000 nM)	4.88	-0.22	2.38	2.38	6.68	-0.72	0.08	0.38	-0.52	-0.72	-0.72	4.18	4.48	6.08	2.58	-0.72	-0.72	0.08	0.08	5.78
CN(C)C[C@@H]1CCn2cc(c3ccccc32)C2=C(C(=O)NC2=O)c2cn(c3ccccc23)CCO1 [Ruboxistaurin] (top concentration 10000 nM)	3.96	2.36	-2.94	-0.34	1.16	0.76	0.96	-5.14	-1.84	1.96	-3.34	1.36	0.86	-4.24	1.46	-1.24	-3.74	-2.64	-1.34	0.46
CC#CC(=O)N1CCC[C@H]1c1nc(-c2ccc(C(=O)Nc3ccccn3)cc2)c2c(N)nccn12 [Acalabrutinib] (top concentration 1000 nM)	9.6	0.8	-0.1	0.8	-0.1	-0.1	-0.1	-0.1	0	1.8	-0.1	1.2	-0.1	0	7.4	-0.1	-0.1	-0.1	0	5.9
C[C@H]1CNCCCN1S(=O)(=O)c1cccc2cncc(F)c12 [Ripasudil] (top concentration 10000 nM)	3.28	2.68	0.78	-0.12	-0.22	-0.22	-0.22	-0.22	-0.22	-0.22	-0.22	-0.22	0.88	-0.22	0.18	-0.22	-0.22	-0.22	-0.22	0.98
CC1(C)CNc2cc(NC(=O)c3cccnc3NCc3ccncc3)ccc21 [Motesanib] (top concentration 10000 nM)	-0.22	-0.22	-0.22	-0.22	-0.22	0.78	1.98	-0.22	-0.22	-0.22	-0.22	-0.22	-0.22	-0.22	-0.22	-0.22	-0.22	1.28	-0.22	-0.22
